# Assay results published in ChEMBL document CHEMBL1125980, “Structural homologies among thromboxane (TXA2) receptor antagonists: Minimal pharmacophoric requirements for high affinity interaction with TXA2 receptors” (Bioorg Med Chem Lett, 1991).
# Assays:
# Thromboxane A2 receptor = target: T1, Thromboxane A2 receptor (Homo sapiens, UniProt P21731); assay: Tested for binding affinity against platelet TXA2 receptor in washed human platelets using [125I]BOP as radioligand
# T1 sequence (P21731 whole entry): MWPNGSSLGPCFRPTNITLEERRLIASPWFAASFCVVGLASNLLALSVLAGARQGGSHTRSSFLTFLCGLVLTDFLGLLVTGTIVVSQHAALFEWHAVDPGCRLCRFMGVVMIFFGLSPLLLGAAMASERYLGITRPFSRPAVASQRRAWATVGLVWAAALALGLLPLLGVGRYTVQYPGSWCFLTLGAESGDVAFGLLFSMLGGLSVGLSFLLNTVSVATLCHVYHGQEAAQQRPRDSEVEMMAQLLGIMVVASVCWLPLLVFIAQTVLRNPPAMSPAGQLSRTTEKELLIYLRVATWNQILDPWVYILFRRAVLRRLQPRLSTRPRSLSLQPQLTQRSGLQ
# Homo sapiens = species on record: Homo sapiens; assay: Tested for concentration required for antagonism of U-46,619-Induced Human Platelet Aggregation; type: functional
SMILES,Kd (Thromboxane A2 receptor) [nM],IC50 (Homo sapiens) [nM]
O=C(O)CCCCCCCCNS(=O)(=O)c1ccccc1,172,1500
O=C(O)CCC/C=C/CCCNS(=O)(=O)c1ccccc1,67,1000
O=C(O)CCC/C=C\C[C@H]1CCC[C@H]1NS(=O)(=O)c1ccccc1,36,250

# Stronger by Kd (Thromboxane A2 receptor), values ahead:
Kd (Thromboxane A2 receptor) [nM],IC50 (Homo sapiens) [nM],SMILES
7.5,150,O=C(O)CCC/C=C\C[C@H]1CCC[C@@H]1NS(=O)(=O)c1ccccc1
2.9,32,O=C(O)CCC/C=C\CC1C2CCC(C2)C1NS(=O)(=O)c1ccccc1 (stereo not given)
